{
  "source": "patent EP0774458A1",
  "about": "“Substituted benzodicarboxylic acid diguanidines, process for their preparation, and their use as medicament or diagnostic agent” (HOECHST AKTIENGESELLSCHAFT, priority 1995, dated 1997)",
  "target": "T1, Na^+/H^+-Exchangers von Kaninchenerythrocyten (Oryctolagus cuniculus, UniProt P23791)",
  "T1 construct": "den Na^+-Influx in die Erythrocyten via Na^+/H^+-Austausch flammenphotometrisch bestimmen zu können; from tissue; host or cells: Erythrocytes in whole blood from the ear arteries of cholesterol-fed White New Zealand rabbits (Ivanovas)",
  "T1 sequence (P23791 whole entry)": "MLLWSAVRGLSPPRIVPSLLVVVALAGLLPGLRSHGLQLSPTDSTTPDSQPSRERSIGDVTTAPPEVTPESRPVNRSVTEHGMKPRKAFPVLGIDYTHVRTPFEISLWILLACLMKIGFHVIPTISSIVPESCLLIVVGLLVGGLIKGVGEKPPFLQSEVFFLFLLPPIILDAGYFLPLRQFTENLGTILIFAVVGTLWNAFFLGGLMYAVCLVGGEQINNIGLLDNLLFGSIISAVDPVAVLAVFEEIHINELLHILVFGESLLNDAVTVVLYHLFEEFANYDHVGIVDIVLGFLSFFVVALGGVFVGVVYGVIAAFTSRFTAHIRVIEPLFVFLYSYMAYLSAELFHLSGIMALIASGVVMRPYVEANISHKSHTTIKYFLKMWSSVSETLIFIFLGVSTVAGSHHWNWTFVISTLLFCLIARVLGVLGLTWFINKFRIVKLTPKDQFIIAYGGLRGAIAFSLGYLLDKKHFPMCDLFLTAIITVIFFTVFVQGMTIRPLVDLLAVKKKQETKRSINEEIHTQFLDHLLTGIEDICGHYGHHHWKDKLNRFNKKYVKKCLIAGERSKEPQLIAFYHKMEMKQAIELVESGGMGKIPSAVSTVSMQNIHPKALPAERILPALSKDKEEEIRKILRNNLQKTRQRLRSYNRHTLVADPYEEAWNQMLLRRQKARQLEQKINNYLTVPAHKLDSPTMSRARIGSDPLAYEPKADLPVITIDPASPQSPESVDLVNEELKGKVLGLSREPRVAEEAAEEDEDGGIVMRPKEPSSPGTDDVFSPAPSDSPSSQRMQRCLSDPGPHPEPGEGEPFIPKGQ",
  "experiment": "Inhibition of the Na+/H+ exchanger of rabbit erythrocytes (amiloride-sensitive sodium influx, flame photometry)",
  "format": "cell-based, Weiße Neuseeland-Kaninchen",
  "settings": "Inhibition des Na^+/H^+-Exchangers, hyperosmolares Salz-Sucrose-Medium, pH 7,4, 37°C",
  "text": "Inhibition des Na^+/H^+-Exchangers von Kaninchenerythrocyten Weiße Neuseeland-Kaninchen (Ivanovas) erhielten eine Standard-Diät mit 2 % Cholesterin für sechs Wochen, um den Na^+/H^+-Austausch zu aktivieren und so den Na^+-Influx in die Erythrocyten via Na^+/H^+-Austausch flammenphotometrisch bestimmen zu können. Das Blut wurde den Ohrarterien entnommen und durch 25 IE Kalium-Heparin ungerinnbar gemacht. Ein Teil jeder Probe wurde zur Doppelbestimmung des Hämatokrits durch Zentrifugieren benutzt. Aliquots von jeweils 100 µl dienten zur Messung des Na^+-Ausgangsgehalts der Erythrocyten.\nUm den Amilorid-sensitiven Natrium-Influx zu bestimmen, wurden 100 µl jeder Blutprobe in jeweils 5 ml eines hyperosmolaren Salz-Sucrose-Mediums (mmol/l: 140 NaCl, 3 KCl, 150 Sucrose, 0,1 Ouabain, 20 Tris-hydroxymethylaminomethan) bei pH 7,4 und 37°C inkubiert. Die Erythrocyten wurden danach dreimal mit eiskalter MgCl2-Ouabain-Lösung (mmol/l: 112 MgCl2, 0,1 Ouabain) gewaschen und in 2,0 ml destilliertem Wasser hämolysiert. Der intrazelluläre Natriumgehalt wurde flammenphotometrisch bestimmt.\nDer Na^+-Nettoinflux wurde aus der Differenz zwischen Natrium-Ausgangswerten und dem Natriumgehalt der Erythrocyten nach Inkubation errechnet. Der Amilorid-hemmbare Natrium-Influx ergab sich aus der Differenz des Natriumgehalts der Erythrocyten nach Inkubation mit und ohne Amilorid 3 x 10-4 mol/l. […]",
  "data": [
    {"molecule": "NC(N)=NC(=O)c1cc(C(=O)N=C(N)N)c(Cl)c(-c2ccccc2)c1", "note": "[Beispiel 1, 4-Chlor-5-phenyl-isophthalsäure-diguanidid]", "values": [
      {"measurement": "IC50", "result": 900, "unit": "µM"}
    ]}
  ]
}
